Source: ChEMBL document CHEMBL3272004, “Dibenz[b,e]oxepinalkanoic acids as nonsteroidal antiinflammatory agents. 3. omega-(6,11-Dihydro-11-oxodibenz[b,e]oxepin-2-yl)alkanoic acids” (J Med Chem, 1977)
Activity calls are given as the source filed them. The rule behind the calls is not given here.

Key:
[1] = test system: Rattus norvegicus; experiment: Induction of carrageenan-induced paw edema in Wistar rat administered 1 hr prior to carrageenan challenge measured at 50 mg/kg, po after 3 hrs of carrageenan challenge relative to vehicle-treated control; type: organism-based; parameters: dose 50 mg/kg, route oral; settings: in vivo
[2] = test system: Rattus norvegicus; experiment: Antiinflammatory activity in po dosed Wistar rat assessed as inhibition of carrageenan-induced paw edema administered 1 hr prior to carrageenan challenge measured after 3 hrs of carrageenan challenge; type: functional
[3] = test system: Rattus norvegicus; experiment: Antiinflammatory activity in Wistar rat assessed as inhibition of carrageenan-induced paw edema administered 1 hr prior to carrageenan challenge measured at 25 mg/kg, po after 3 hrs of carrageenan challenge relative to vehicle-treated control; type: functional

| SMILES | inhibition [2] | ED50 [2] | also measured |
| --- | --- | --- | --- |
| O=C(O)CCc1ccc2c(c1)C(=O)c1ccccc1CO2 |  |  | Activity [1]: 11% |
| O=C(O)CCc1ccc(OCc2ccccc2C(=O)O)cc1 | inactive |  |  |
| COC(=O)CCCc1ccc2c(c1)C(=O)c1ccccc1CO2 |  |  | inhibition in vivo at 25 mg/kg [3]: 31.7% |
| O=C(O)CCCCCCCc1ccc2c(c1)C(=O)c1ccccc1CO2 |  | 11.7 mg/kg |  |
| O=C(O)Cc1ccc2c(c1)C(=O)c1ccccc1CO2 [ISOXEPAC] |  | 6.4 mg/kg |  |
| O=C(O)CCCCCCCc1ccc(OCc2ccccc2C(=O)O)cc1 | inactive |  |  |
| CC(C)OC(=O)CCCc1ccc2c(c1)C(=O)c1ccccc1CO2 |  |  | inhibition in vivo at 25 mg/kg [3]: 43.7% |
| O=C(O)CCCc1ccc2c(c1)C(=O)c1ccccc1CO2 |  | 10.1 mg/kg |  |
| O=C(O)CCCc1ccc(OCc2ccccc2C(=O)O)cc1 | inactive |  |  |
| O=C(O)CCCCCc1ccc(OCc2ccccc2C(=O)O)cc1 | inactive |  |  |
| O=C(O)CCCCCc1ccc2c(c1)C(=O)c1ccccc1CO2 |  | 18.2 mg/kg |  |
| COc1ccc2c(c1)c(CC(=O)O)c(C)n2C(=O)c1ccc(Cl)cc1 [INDOMETHACIN] |  | 4.4 mg/kg |  |
